Consider two substances from PMC12426930, “Antioxidant, Hypotensive, and Antidiabetic Breakthroughs: Bromelain Hydrolysis Unlocks Quinoa’s Peptide Potential - In Silico and In Vitro Approach” (Journal of Agricultural and Food Chemistry, 2025).

Where “and” joins values, the source holds several entries; their conditions need not be identical. Identical values can stand only once. Entries after “also recorded” stand apart in the source; their conditions may differ. Marks after values point to notes of the source that are not given here.

The subject of assay [1] is human DPP-IV. Briefly: DPP-IV inhibitory activity. In kind it is biochemical. The settings on record: H-Gly-Pro-pNA, 37 °C, mean ± SD, n = 9. As to the method: Dipeptidyl peptidase-IV (DPP-IV) inhibitory activity was measured following the method by Vilcacundo et al., with slightly modifications. […] For the negative control 70 μL of Tris Buffer was added. Finally, 100 μL of substrate (H-Gly-Pro-pNA, 100 mM) was added to all wells. The reaction was performed at 37 °C in the microplate reader (BioTek Instruments, Winooski, VT, USA), and the reaction was read at 405 nm for 30 min, with reading intervals of 2 min. Finally, data were plotted and fitted to a logarithmic regression to obtain dose–response curves.

For assay [2], the system named is angiotensin I converting enzyme. Briefly: ACE-I inhibitory activity (fluorometric kit CS0002). In kind it is biochemical. Conditions: fluorometric kit, 37 °C, mean ± SD, n = 9. As for the experimental part: ACE-I inhibitory assay was determined by ACE-I activity assay kit (fluorometric, CS0002). This assay is based on the hydrolysis of angiotensin I by ACE to yield angiotensin II. Briefly, all reagents were diluted in the assay buffer, and a total of 50 μL of peptide sample, positive control (captopril PHR1307), and assay buffer (blank) were added to a 96-well black plate. The standard was added at 0, 0.1, 0.2, 0.3, 0.4, 0.5, 0.6, and 0.8 nmol and adjusted to a final volume of 100 μL. […] Finally, fluorescence (λex, 320 nm; λem, 405 nm) was measured in five cycles for 5 min. Linear regressions were determined to calculate the enzymatic activity for each sample per concentration. Thus, one unit was defined as the amount of enzyme that releases 1 nmol of fluorescent substrate in 1 min at 37 °C. Finally, the inhibition (%) of each peptide and positive control was determined using regression analysis of the corresponding dose–response curves.

In assay [3] the test system is rat intestinal acetone α-glucosidase. Briefly: α-Glucosidase inhibition. Conditions: 2 mM maltose, pH 6.9, 37 °C, mean ± SD, n = 9. In kind it is biochemical. As to the method: α-Glucosidase inhibition assay was measured following the method of Vilcacundo et al., with slightly modifications. First, 100 μL of sample ([…]), positive control (1 mM acarbose), and/or negative control (Milli-Q-water), were added to 50 μL of rat intestinal acetone α-glucosidase (1 U/mL in 0.1 M, maleate buffer pH 6.9), and the mixture was incubated at 37 °C for 5 min. Then, 50 μL of substrate (2 mM maltose) was added into each tube, which was performed in a Thermomixer (37 °C, 1000 rpm, for 30 min). Finally, the reaction was stopped at 100 °C for 5 min. The glucose concentration in the reaction was measured using GOPOD (glucose oxidase/peroxidase) from Megazyme, with absorbance measured at 560 nm (Gen5 software, version 1.1, BioTek Instruments, Winooski, VT, USA). The percentage of inhibition was calculated relative to the non-inhibited control (negative control).

A short description of assay [4]: Oxygen radical absorbance capacity (ORAC) assay. The settings on record: AAPH, fluorescein, 37 °C, 150 min. As for the experimental part:
Oxygen radical absorbance capacity (ORAC) assay was performed following the method of Carvalho-Oliveira et al. Briefly, 30 μL of peptide (different concentrations 50–1000 μM) or standard (Trolox at 0–160 μM) were placed in a black 96-well plate. The reaction mixture comprised 180 μL of fluorescein (116.9 nM) and 90 μL of 2,2’-azobis(2-amidinopropane) dihydrochloride (AAPH) (40 mM). Finally, the fluorescence was recorded every 2 min for 150 min at excitation and emission wavelengths of 485 and 520 nm, respectively. All reactions were performed at 37 °C. The results were expressed as μmol Trolox equivalent (TE)/μmol of peptide. Quantification and interpretation of the data were done by Gen5 software, version 1.1 (BioTek Instruments, Winooski, VT, USA).

Assay [5] in a line: Trolox equivalent antioxidant capacity (TEAC, ABTS radical cation). Conditions: 734 nm, 6 min, mean ± SD, n = 9. As for the experimental part: The Trolox equivalent antioxidant capacity (TEAC) analysis was performed as described by Sanchez-Velazquez et al. In order to produce ABTS (2,2’-azino-bis(3-ethylbenzthiazoline-6-sulfonic acid) radical cation (ABTS^ ●+ ), ABTS (7 mM) were mixed with potassium persulfate (2.45 mM) in the dark at room temperature (RT 18–21 °C) for 16 h. […] Finally, the reaction was measured at 0 and 6 min at 734 nm (SPARK-10M, TECAN, Switzerland). The percentage of inhibition was calculated as follows: %TEACinhibition=Abs sample0min−Abs sample6min/Abs sample0min−(Abs blank0min−Abs blank6min/Abs blank0min)×100

Assay [6] has as its system porcine pancreatic α-amylase (PPA). Briefly: α-Amylase inhibition. In kind it is biochemical. The settings on record: CNPG3 substrate, 405 nm, 37 °C, mean ± SD, n = 9. As for the experimental part: α-Amylase inhibition activity was performed using the 3,5-dinitrosalicylic acid (DNS) assay according to Zulfiqar et al. […] Then, 50 μL of substrate (2-chloro-4-nitro-[…] (CNPG3) (2 mM)) was added per well. Finally, absorbance was recorded at 405 nm (SPARK-10M, TECAN, Switzerland) at 37 °C for 10 min in 1-min intervals. The percentage of enzyme inhibition was calculated in relation to 100% enzymatic activity in the negative control (phosphate-buffered saline (PBS) buffer, enzyme, and substrate).

The nature of assay [7]: Fe^2+ chelation assay. Conditions: 125 μM; ferrozine, pH 4.9, 37 °C, 10 min; mean ± SD, n = 9. As for the experimental part:
Fe^2+ chelation assay was measured according to Sanchez-Velazquez et al. with slightly modifications. 25 μL of sample (synthetic peptides, […]) or positive control (EDTA, 0.1 μg/μL) was added to 225 μL of buffer (sodium acetate, 100 mM, pH 4.9), then 15 μL of iron solution (0.1%, w/v) and 9 μL of ferrozine (40 mM) were added to start the reaction. For the blank well, 250 μL of buffer was added to the iron solution and ferrozine. The reaction was incubated 10 min at 37 °C and then read at 562 nm (SPARK-10M, TECAN, Switzerland). Fe^2+ chelating activity was calculated as described previously for copper.

Assay [8] has as its system 15-LOX enzyme (soybean lipoxygenase). Briefly: Lipoxygenase inhibitor screening assay (LOX). In kind it is biochemical. Conditions: 31.25 μM; linoleic acid 1 mM, RT, 490 nm. As to the method:
Lipoxygenase inhibitory activity assay (LOX) was determined following the manufacturer’s instructions (#760700). Thus, peptide concentrations (31.25–125 μM) were prepared with the assay buffer and tested in triplicate. First, 10 μL of the peptides at each concentration was mixed with 90 μL of 15-LOX enzyme (soybean lipoxygenase) in a 96-well plate. Then, three wells each contained assay buffer as blank (without enzyme), assay buffer as vehicle (with enzyme), and 15-LOX as positive control. Afterward, 10 μL of linoleic acid (1 mM) (substrate) was added to all wells and shaken for 10 min at RT. Finally, 100 μL of chromogen was added to all wells, and the plate was sealed and shaken for an additional 5 min at RT. The final reaction was measured at 490 nm, and the percentage of inhibition was calculated as. %inhibition=[1−Correctedvaluesofpeptide/Correctedvaluesofvehicle]×100

Usually inhibition stands for the share of the control response that was lost under treatment. A high value points to strong suppression. As to “NIYQIS [quinoa 11S globulin peptide, custom-synthesized by GenScript, purity 95%]”, the results for the DPP-IV inhibition result in assay [1] (125 μM), in assay [1] (250 μM) and in assay [1] (500 μM) were “ND (no inhibitory effect was observed at the given concentration)”, 12.22 ± 0.50^b % and 16.36 ± 0.70^a %, respectively. For the same substance, the ACE-I inhibition is on record as 17.20 ± 0.28^d % in assay [2] (125 μM), 31.7 ± 2.40^b % in assay [2] (250 μM) and 53.0 ± 1.41^a % in assay [2] (500 μM). For the same substance, the α-glucosidase inhibition was 7.72 ± 0.95^c % in assay [3] (300 μM) and 11.93 ± 0.92^b % in assay [3] (500 μM). This substance had an inhibition in assay [3] (400 μM) of 10.4 ± 0.93%. The ORAC in assay [4] is 0.75 μmol TE/μmol peptide; in assay [4] (mean ± SD, n = 9), 0.75 μM TE/μM Peptide and 0.75 ± 0.02^a μM TE/μM Peptide. The “TEAC inhibition (ABTS^●+ inhibition)” value in assay [5] (125 μM) stood at 7.87 ± 0.10%; in assay [5] (250 μM), 7.39 ± 0.19%; in assay [5] (500 μM) it was 8.19 ± 0.38%. For the same substance, the α-amylase inhibition result in assay [6] (300 μM) is reported as “ND (no inhibitory effect was observed at the given concentration)”; in assay [6] (400 μM), “ND (no inhibitory effect was observed at the given concentration)”; in assay [6] (500 μM), “did not show significant α-amylase inhibition; also recorded: ND (no inhibitory effect was observed at the given concentration)”. In addition, the “Fe^2+ chelating activity” value in assay [7] is 9.04 ± 0.96%. The substance also displayed an LOX inhibition in assay [8] of 16.20%.
For the substance “YDDER [quinoa 11S globulin peptide, custom-synthesized by GenScript, purity 95%]”, the DPP-IV inhibition entry is listed as “ND (no inhibitory effect was observed at the given concentration)” in assay [1] (125 μM), “ND (no inhibitory effect was observed at the given concentration)” in assay [1] (250 μM) and 3.44 ± 0.50^d % in assay [1] (500 μM). This substance also came in with an inhibition in assay [2] (125 μM) of 21.1 ± 0.19%. Besides, the figures for the ACE-I inhibition in assay [2] (250 μM) and in assay [2] (500 μM) were 24.1 ± 0.18^c % and 24.3 ± 0.15^c %, respectively. Moreover, the figures for the α-glucosidase inhibition in assay [3] (300 μM), in assay [3] (400 μM) and in assay [3] (500 μM) were 8.48 ± 0.94^c %, 8.33 ± 0.94^c % and 14.86 ± 0.89^a %, respectively. For the same substance, the ORAC is recorded as 0.24 μmol TE/μmol peptide in assay [4] and 0.24 ± 0.01^b μM TE/μM Peptide in assay [4] (mean ± SD, n = 9). The figures for the “TEAC inhibition (ABTS^●+ inhibition)” value in assay [5] (250 μM) and in assay [5] (500 μM) were 7.45 ± 0.19% and 8.7 ± 0.50%, respectively. Moreover, the α-amylase inhibition in assay [6] (300 μM) is reported as 12.20 ± 1.67^c %; in assay [6] (400 μM), 11.43 ± 2.04^c %; in assay [6] (500 μM) it was 6.66 ± 0.38^d %. Besides, the “Fe^2+ chelating activity” value in assay [7] came to 8.8 ± 1.0%. The substance also showed an LOX inhibition in assay [8] of 22.64%.
